Reference: US12109272B2, “Intermittent dosing of glucocorticoid receptor modulators for the treatment of ovarian and other cancers” (Corcept Therapeutics Incorporated, priority 2021, dated 2024)

Columns and labels:
Type in all cases: in vivo, human
[1] = Phase 2 study: safety and tolerability (adverse events); conditions: relacorilant (intermittent or continuous) + nab-paclitaxel compared to nab-paclitaxel monotherapy; data as of Mar. 22, 2021
Protocol: Independent comparisons for the intermittent versus (vs.) comparator study arms and the continuous vs. comparator arms were performed. The primary endpoint of the study was progression-free survival as determined by the Response Evaluation Criteria in Solid Tumors (“RECIST”) version 1.1 guidelines (available via the World Wide Web at the following URL: ctep.cancer.gov/protocolDevelopment/docs/recist_guideline.pdf). Secondary endpoints included objective response rate, duration of response, overall survival, and safety of the combined administration of nab-paclitaxel and relacorilant. All efficacy objectives and corresponding endpoints listed below, assessment for response and disease progression were assessed according to RECIST v1.1.
Relacorilant treatment was safe, for both the intermittent and continuous groups, and was well tolerated by the patients. […] Safety and tolerability of the three treatment regimens is illustrated in FIG. 8 (data as of Mar. 22, 2021). There were fewer serious (grade ≥3) peripheral neuropathies in the intermittent group than the comparator group. […]

[2] = Phase 2 study: exposures (AUC, Cmax) of relacorilant and nab-paclitaxel; conditions: patients
Protocol: The exposures and peak concentrations of both nab-paclitaxel and of relacorilant were measured.

GR-inducible genes = test: Separate healthy volunteer study: genes induced in whole blood by prednisone; conditions: single dose, healthy volunteers

Row | Structure (SMILES) | safety and tolerability [1] | exposures (AUC and Cmax) versus safety endpoints, presence or absence of the adverse events [2] | variability of exposures ([2]; all groups, AUC and Cmax) | number of genes induced (GR-inducible genes)
1 | Cn1cc(S(=O)(=O)N2CCC3=Cc4c(cnn4-c4ccc(F)cc4)C[C@]3(C(=O)c3cc(C(F)(F)F)ccn3)C2)cn1 [relacorilant, (R)-(1-(4-fluorophenyl)-6-((1-methyl-1H-pyrazol-4-yl)sulfonyl)-4,4a,5,6,7,8-hexahydro-1H-pyrazolo[3,4-g]isoquinolin-4a-yl)(4-(trifluoromethyl)pyridin-2-yl)methanone] | safe | largely overlapping exposures | large variability | 
2 | C[C@]12C=CC(=O)C=C1CC[C@@H]1[C@@H]2C(=O)C[C@@]2(C)[C@H]1CC[C@]2(O)C(=O)CO [prednisone] |  |  |  | 239
